{"source": "paper PMC2859832", "about": "(Journal of medicinal chemistry, 2009)", "key": {"[1]": {"molecular_target": "T1, SH2 domain of Stat3 (Homo sapiens, UniProt P40763)", "T1 sequence (P40763 whole entry, the tested form may be a part)": "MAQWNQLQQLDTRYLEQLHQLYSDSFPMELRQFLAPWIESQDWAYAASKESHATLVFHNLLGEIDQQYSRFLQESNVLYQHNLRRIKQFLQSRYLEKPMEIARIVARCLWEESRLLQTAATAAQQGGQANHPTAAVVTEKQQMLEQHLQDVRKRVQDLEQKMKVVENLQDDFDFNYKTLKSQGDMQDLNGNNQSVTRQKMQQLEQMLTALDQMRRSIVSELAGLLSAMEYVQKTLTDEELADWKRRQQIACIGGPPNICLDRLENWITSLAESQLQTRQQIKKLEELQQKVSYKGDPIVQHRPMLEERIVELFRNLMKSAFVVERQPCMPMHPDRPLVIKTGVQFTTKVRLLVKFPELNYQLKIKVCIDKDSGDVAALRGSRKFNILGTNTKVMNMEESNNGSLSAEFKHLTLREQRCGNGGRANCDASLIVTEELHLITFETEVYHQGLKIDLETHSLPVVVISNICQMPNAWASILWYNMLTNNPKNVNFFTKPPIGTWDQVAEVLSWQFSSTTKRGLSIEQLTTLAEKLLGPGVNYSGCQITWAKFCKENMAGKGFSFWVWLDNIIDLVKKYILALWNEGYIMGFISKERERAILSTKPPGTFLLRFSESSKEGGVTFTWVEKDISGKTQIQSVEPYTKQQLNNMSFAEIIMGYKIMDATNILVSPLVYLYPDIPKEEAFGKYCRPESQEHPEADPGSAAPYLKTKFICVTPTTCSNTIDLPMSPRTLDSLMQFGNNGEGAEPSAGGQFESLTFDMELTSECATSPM", "assay": "fluorescence polarization", "assay_type": "binding", "details": "for fold lower affinity than the unsubstituted methyl group: relative to 4-methyl Aba peptide (17)"}, "[2]": {"molecular_target": "T1, SH2 domain of Stat3", "details": "FP assay; ref [8]; cited from earlier work"}}, "note": "Where two headings read alike, the source gives them in different places. Starred links: 1 amine or outer side, 2 acyl side, 3 side chain; linkers in the order of their positions; H or OH if unused. Non-standard residues stand in square brackets, D forms with d. *: point of attachment. mPro = cis-3,4-methanoproline, O=C([C@@H]1[C@@H]2C[C@@H]2CN1[*:1])[*:2]; pY = N[C@@H](Cc1ccc(OP(=O)(O)O)cc1)C(=O)O; Hydrocinnamoyl = O=C(CCc1ccccc1)*; NHBn = c1ccc(CN*)cc1"}
{"compound": "CC(C)C[C@H](NC(=O)/C=C/c1ccc(OP(=O)(O)O)cc1)C(=O)N1CCC[C@H]1C(=O)N[C@@H](CCC(N)=O)CN(Cc1ccccc1)Cc1ccccc1", "note": "[Peptide 29]", "values": [{"measurement": "fold lower affinity than the unsubstituted methyl group", "setting": "[1]", "value": 7, "unit": "fold"}]}
{"compound": "CC(C)C[C@H](NC(=O)/C=C/c1ccc(OP(=O)(O)O)cc1)C(=O)N1CCC[C@H]1C(=O)N[C@H](CN)CCC(N)=O", "note": "[Peptide 30]", "values": [{"measurement": "fold lower affinity than the unsubstituted methyl group", "setting": "[1]", "value": 10, "unit": "fold"}]}
{"compound": "CC(C)C[C@H](NC(=O)/C=C/c1ccc(OP(=O)(O)O)cc1)C(=O)N1CCC[C@H]1C(=O)N[C@@H](COC(N)=O)[C@H](C)OCc1ccccc1", "note": "[Peptide 37]", "values": [{"measurement": "IC50", "setting": "[1]", "value": 6.9, "unit": "µM"}]}
{"compound": "CC(C)C[C@H](NC(=O)/C=C/c1ccc(OP(=O)(O)O)cc1)C(=O)N1CCC[C@H]1C(=O)N[C@H](C)CNC(N)=O", "note": "[Peptide 39]", "values": [{"measurement": "fold loss in activity on addition of a methyl group", "setting": "[1]; relative to 2-aminoethylurea peptide 38", "value": 10, "unit": "fold"}]}
{"compound": "CC(C)C[C@H](NC(=O)/C=C/c1ccc(OP(=O)(O)O)cc1)C(=O)N1C[C@H]2C[C@H]2[C@H]1C(=O)N[C@@H](CCC(N)=O)C(=O)NCc1ccccc1", "note": "[Peptide 40, pCinn-Leu-cis-3,4-methanoPro-Gln-NHBn]", "values": [{"measurement": "fold increase in affinity on incorporation of cis-3,4-methanoPro", "setting": "[1]; relative to peptide 2", "value": 2, "unit": "fold"}]}
{"compound": "hydrocinnamoyl-pTyr-Leu-mPro-Gln-NHBn (Hydrocinnamoyl-[pY]L[mPro]Q-NHBn; SMILES CC(C)C[C@H](NC(=O)[C@H](Cc1ccc(OP(=O)(O)O)cc1)NC(=O)CCc1ccccc1)C(=O)N1C[C@H]2C[C@H]2[C@H]1C(=O)N[C@@H](CCC(N)=O)C(=O)NCc1ccccc1)", "values": [{"measurement": "IC50", "setting": "[2]", "value": 0.125, "unit": "µM"}]}
